This is an account of results in publication PMC4820706, “Discovery of a small-molecule binder of the oncoprotein gankyrin that modulates gankyrin activity in the cell” (Scientific Reports, 2016).

Experiment [1] concerns the target T1, gankyrin (Homo sapiens, UniProt O75832).
T1 construct: gene PSMD10; His-tagged full-length human gankyrin
T1 sequence (O75832 1-226): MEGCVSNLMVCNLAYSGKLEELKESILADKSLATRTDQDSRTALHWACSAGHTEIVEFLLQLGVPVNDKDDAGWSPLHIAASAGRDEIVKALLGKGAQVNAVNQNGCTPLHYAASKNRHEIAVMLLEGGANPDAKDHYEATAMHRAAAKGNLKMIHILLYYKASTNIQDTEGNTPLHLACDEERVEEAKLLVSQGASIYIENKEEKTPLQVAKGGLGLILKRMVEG
Description: ITC (Kd […], stoichiometry […]); also label-free MST (Kd […]), thermal shift, 1H-15N HSQC NMR. The experiment is classed as binding.

Experiment [2] has as its target T1, gankyrin. Kind of experiment: ITC. The experiment is classed as binding.

Each structure is given as a SMILES string.

For the molecule `COC(=O)c1ccc(-n2cc(CCCOS(=O)(=O)c3ccc(C)cc3)nn2)cc1` [cjoc42], the Kd (commonly the constant that tells how readily two partners part at equilibrium) on gankyrin [1] amounted to 0.58 ± 0.07 µM. As to `CCCNC(=O)c1ccc(-n2cc(CCCNS(=O)(=O)c3ccc(C)cc3)nn2)cc1` [compound 8], the Kd at gankyrin [2] was about 10 µM. Same read-out and setting: for `COC(=O)c1ccc(-n2cc(CNS(=O)(=O)c3ccc4ccccc4c3)nn2)cc1` [compound 12] the value was about 56 µM.
